Laboratory results published in article PMC7486940, “Pre-symptomatic Caspase-1 inhibitor delays cognitive decline in a mouse model of Alzheimer disease and aging” (Nature Communications, 2020).

Experiments:
Iba1-positive microglia = Iba1-positive microglia quantification and morphology (immunohistochemistry); assay type: in vivo, mouse
Protocol: (§1) VX-765 (Adooq Bioscience, Irvine, CA, USA) was dissolved 5 mg • ml^−1 in 20% cremophor in dH2O[60] (Sigma-Aldrich, ON, Canada) and administered IPWT and J20 mice received three injections per week of either 50 mg • kg^−1 VX-765 or 20% cremophor vehicle for 4 weeks between 2 and 3 months of age. Mice were longitudinally followed starting 4 weeks after the last injection [4-week washout (WO)], then every other month at 12- and 20-week WO (6 and 8 months of age, respectively). Intermediate 8- and 16-week WO periods were also looked at with a smaller number of mice. After each WO period, animals were randomly chosen, independent of behavioural performance, for sacrifice and assigned to either histological or biochemical analysis (Fig. 2a).
(§2) Mice for immunohistochemistry were isoflurane anesthetized and perfused with ice-cold 4% paraformaldehyde in 0.1 M PBS (Sigma-Aldrich). Brains were post-fixed overnight in 10% neutral-buffered formalin (ThermoFisher Scientific, ON, Canada) and transferred to 70% ethanol for paraffin embedding and sectioning at 4 μm. Tissue slides underwent heat-induced antigen retrieval with citrate or EDTA buffer. Immunostaining was performed using the Dako Autostainer Plus slide processor and EnVision Flex system (Dako, ON, Canada). Sections were peroxidase treated, blocked in Serum-Free Protein Block, and immunostained with the following antibodies: 1:2000 rabbit anti-Iba1 (Wako, VA, USA), 1:500 rat anti-CD68 (clone FA-11, Bio-Rad, Hercules, CA, USA), 1:8000 rabbit anti-GFAP (Dako) and 1:2000 rabbit anti-Aβ1-40 (F25276, laboratory developed). CD68 antibody required an additional rabbit anti-rat IgG/HRP secondary reagent (Dako) incubation. […] Sections were digitally scanned with MIRAX SCAN (Zeiss, ON, Canada) and used for subsequent analyses.
(§3) Iba1-positive microglia were quantified using a modified version of an area-specific counting frame. The number of Iba1-positive cells per mm^3 in the anterior CA1 region and cortex was estimated across four sections, spaced 60 μm apart. Microglial activation level was determined based on morphological measurements[19],[41]. Aβ1-40 and GFAP immunostaining density was measured across four sections using ImageJ software (NIH, Bethesda, MD, USA). Quantification was blinded to treatment and genotype.

[1] = system: proteolipid protein-synuclein mouse model; set-up: method as in PMID 27482103; conditions: proteolipid protein-synuclein mouse model of multiple systems atrophy; cited from earlier work
J20 mice [2] = assay: open field; assay type: in vivo, mouse; conditions: 50 mg/kg IP 3x/week for 1 month, 4- to 20-week WO
Protocol: as §1
(§4) Open-field and novel object recognition (NOR) were measured at all WO periods. The Barnes maze was assessed at 12- and 20-week WO. Open field: Mice were placed in an open-field chamber, composed of a plexiglass box with no ceiling and white floor, and allowed to explore for 5 min. NOR: Mice were pre-exposed to two identical objects in the open-field chamber for 5 min. Two hours after pre-exposure, mice were placed back into the chamber and exposed to one familiar object and one novel object for 5 min (test phase). Mice were exposed to a specific object only once across multiple test sessions. Barnes maze: Learning acquisition (days 1–4)—each mouse was trained to find the target and enter the escape box within 180 s. Four trials per day, ~15 min apart, were performed for 4 consecutive days. Probe (day 5)—a single, 90 s trial was performed on each mouse to measure primary latency and number of errors to reach the blocked target. Target hole location was changed between the two separate test sessions. Behavioural scoring was blinded to mouse genotype and treatment.

Casp11 = system: Casp11; set-up: method as in Flores et al., Nature Communications 2018; conditions: ref Flores et al., Nature Communications 2018; cited from earlier work
J20 mice [3] = assay: Barnes maze, spatial learning and memory; assay type: in vivo, mouse
Protocol: as §1, §4

WT mice = assay: Barnes maze, spatial learning and memory; assay type: in vivo, mouse
Protocol: as §1, §4

Aβ = Aβ immunostaining density and ELISA (RIPA- and FA-soluble); assay type: in vivo, mouse
Protocol: as §1, §2, §3
ELISA samples were prepared in RIPA described above. RIPA-insoluble pellets were further extracted in 70% formic acid (FA) in dH2O. FA was evaporated in a speed vacuum, and the resulting pellet was solubilized in 200 mM Tris-HCl, pH 7.5. IL-1β and Aβ levels (which include Aβ38, Aβ40 and Aβ42) were measured using Meso Scale Discovery ELISA kits (Rockville, MD, USA). Standards and samples were prepared according to the manufacturer’s protocols and run in duplicate.

IDE and Nep = IDE and Nep mRNA and protein levels; assay type: in vivo, mouse; conditions: hippocampus
Protocol: as §1
Twenty to sixty micrograms of protein or 16 μl of precipitated protein from culture medium were separated on SDS-PAGE or 4–12% NuPAGE Bis-Tris gels (Invitrogen, Carlsbad, CA, USA) with MES buffer (Invitrogen) and transferred onto PVDF membranes (Bio-Rad) according to the manufacturer’s instructions. […] Protein levels were normalized to β-actin and expressed as a percentage relative to the vehicle-treated WT group, except for APP which was compared to the vehicle-treated J20 group. […]

[4] = J20, 12-week WO, probe 24 h after last training day

For CCO[C@@H]1OC(=O)C[C@@H]1NC(=O)[C@@H]1CCCN1C(=O)[C@@H](NC(=O)c1ccc(N)c(Cl)c1)C(C)(C)C [VX-765, (S)-1-((S)-2-{[1-(4-amino-3-chloro-phenyl)-methanoyl]-amino}-3,3-dimethyl-butanoyl)-pyrrolidine-2-carboxylic acid ((2R,3S)-2-ethoxy-5-oxo-tetrahydro-furan-3-yl)-amide], the “type III, amoeboid-appearing, microglia” value (Iba1-positive microglia; J20, 20-week WO) was “significantly higher in vehicle- and VX-765-treated J20 mice at 20-week WO”, the “duration of reduced microglial activation” value (Iba1-positive microglia; J20 cortex) was ≤ 5 months and the “duration of reduced microglial activation” value (Iba1-positive microglia; J20 hippocampus) was “up to 4 months”. For the same compound, the “microglial morphological profile (type I resting / type II activated)” value (Iba1-positive microglia; J20 hippocampus and cortex) was “reverted the profile in J20 mice back to a near WT profile at 4-week WO, but it slowly shifted from a resting to an activated state morphologically similar to vehicle-treated J20 mice from 12-week WO onwards”, the Iba1-positive microglia numbers (Iba1-positive microglia; J20 hippocampus and cortex, all WO periods) was “prevented this increase, normalizing Iba1-positive numbers to near WT levels, although numbers did not reach significance in the hippocampus at 8- and 20-week WO” and the “type IV microglia” value (Iba1-positive microglia; J20 hippocampus, 20-week WO) was “elevated in the hippocampus of VX-765-treated J20 mice at 20-week WO”. For the same compound, the alpha-synuclein toxicity [1] was “protect against alpha-synuclein toxicity”, the “open field hyperactivity (distance travelled, quadrant entries)” value (J20 mice [2]) was “attenuated hyperactivity in J20 mice only at 4-week WO” and the “IC50 for Casp11 compared to Casp1” value (Casp11) was “over 100 fold”. For the same compound, the “Barnes maze probe preference towards the target area” value (J20 mice [3]; 12-week WO) was “All groups, except the vehicle-treated J20 group, showed a preference towards the target area”, the “Barnes maze training primary latency” value (J20 mice [3]; 12-week WO, all groups) was “did not differ between groups” and the “Barnes maze learning acquisition primary errors” value (J20 mice [3]; J20, 12-week WO, 50 mg/kg IP 3x/week for 1 month) was “prevented this learning deficit in J20 mice and reduced the number of errors committed to near WT levels”. For the same compound, the “Barnes maze probe primary errors” value (J20 mice [3]; [4]) was “VX-765 treatment prevented this deficit”, the “Barnes maze probe primary latency” value (J20 mice [3]; [4]) was “did not differ between vehicle- or VX-765-treated J20 and vehicle-treated WT groups” and the “Barnes maze learning deficits” value (J20 mice [3]; J20, 20-week WO) was “vehicle-, but not VX-765-treated, J20 mice exhibited learning deficits”. For the same compound, the “Barnes maze probe primary latency and primary errors” value (J20 mice [3]; J20, 20-week WO) was “these deficits were prevented with VX-765 treatment”, the “Barnes maze probe primary latency and primary errors” value (WT mice; 12-week WO, vs vehicle-treated WT) was “decreased primary latency and primary errors compared to vehicle-treated WT mice” and the “Barnes maze probe primary latency and primary errors” value (WT mice; 20-week WO) was “This effect was attenuated at 20-week WO”. The “FA-soluble Aβ42 levels, Aβ42/total Aβ ratio, cortical Aβ subtypes” value (Aβ; J20, 20-week WO) was “did not affect hippocampal Aβ42 levels and Aβ42/total Aβ ratio, or any Aβ subtype in the cortex”, the Aβ staining density (Aβ; J20 hippocampus and cortex, vs vehicle) was “significantly decreased Aβ staining density only in the cortex at 12-week WO” and the “RIPA-soluble Aβ38, Aβ40, Aβ42 or total Aβ levels” value (Aβ; J20 hippocampus or cortex, all WO periods, vehicle vs VX-765) was “no significant differences”. The “formic acid (FA)-soluble total Aβ levels” value (Aβ; J20 hippocampus or cortex, any WO period) was “did not differ between vehicle and VX-765 treatment”, the “FA-soluble hippocampal Aβ38 and Aβ40 levels” value (Aβ; J20 hippocampus, 20-week WO) was “increased FA-soluble hippocampal Aβ38 and Aβ40 levels at 20-week WO” and the “RIPA-soluble Aβ42/total Aβ ratio” value (Aβ; J20 hippocampus, 20-week WO) was “significantly higher in vehicle- compared to VX-765-treated hippocampus in J20 mice at 20-week WO”. The “Nep mRNA and protein levels” value (IDE and Nep) was “remained unchanged” and the “IDE mRNA or protein levels” value (IDE and Nep; WT vs vehicle- or VX-765-treated J20) was “did not change between WT and vehicle- or VX-765-treated J20 mice”.
